Data published in ChEMBL document CHEMBL5042535, “Structure-Based Design and Synthesis of N-Substituted 3-Amino-β-Carboline Derivatives as Potent αβ-Tubulin Degradation Agents” (J Med Chem, 2022).

Key:
Format in all cases: functional, cell-based
HeLa = assay: Antiproliferative activity against human HeLa cells assessed as reduction in cell viability measured after 24 hrs by MTT assay
A2780S = assay: Antiproliferative activity against human A2780S cells assessed as reduction in cell viability measured after 24 hrs by MTT assay
Raji = assay: Antiproliferative activity against human Raji cells assessed as reduction in cell viability measured after 24 hrs by MTT assay
NCI-H460 = assay: Antiproliferative activity against human NCI-H460 cells assessed as reduction in cell viability measured after 24 hrs by MTT assay; settings: NCI-H460, 24 h
MCF7 = assay: Antiproliferative activity against human MCF7 cells assessed as reduction in cell viability measured after 24 hrs by MTT assay; settings: MCF7, 24 h

| Structure (SMILES) | IC50 (HeLa) [nM] | IC50 (A2780S) [nM] | IC50 (Raji) [nM] | IC50 (NCI-H460) [nM] | IC50 (MCF7) [nM] |
| --- | --- | --- | --- | --- | --- |
| c1ccc(-c2cccc(CNc3cc4c(cn3)[nH]c3ccccc34)c2)cc1 | > 500 | > 500 | > 500 | > 500 | > 500 |
| CC(C)(C)CC(C)(C)c1ccc(Oc2cccc(CNc3cc4c(cn3)[nH]c3ccccc34)c2)cc1 | > 500 | > 500 | > 500 | > 500 | > 500 |
| CCCCNc1cc2c(cn1)[nH]c1ccccc12 | > 500 | 175 | 220 | 340 | 513 |
